Experiments:
[1] = system: cat fleas (Ctenocephalides felis); test: Contact activity against cat fleas (LC50, % kill); conditions: for pest or weed control at 1.26 µg/cm2, 1.26 µg/cm2: Ctenocephalides felis, read-out: % Kill; for % Kill: percent of a sample of cat fleas killed at a concentration of 1.26 μg/cm^2
Excerpt: (§1) Exemplified compounds of Formula 1 are listed by Tables 1a and 1b, above. The activity of these compounds against Haemonchus contortus and cat fleas (Ctenocephalides felis) is summarized by Table 7, below.

[2] = system: Haemonchus contortus; test: Activity against Haemonchus contortus (LD99); conditions: dose required to kill 99% of the sample of Haemonchus contortus
Excerpt: as §1
The LD99 value is the dose, expressed as μg/ml, that was required to kill 99% of the sample of Haemonchus contortus.

SMILES | pest or weed control at 1.26 µg/cm2, 1.26 µg/cm2 [1] [%] | EC99 [2] [µg/mL] | % Kill [1] [%] | LD99 [2]
N#C/C(=C\c1ccc[nH]1)c1ccc2ccccc2c1 [Compound 66, 2-(2-naphthyl)-3-(1H-pyrrol-2-yl)acrylonitrile] | 28 | 2.5 |  | 
N#C/C(=C\c1ccc[nH]1)c1c(F)cccc1Cl [Compound 67] |  |  | 7 | — (the symbol ‘—’ indicates tested but inactive up to 15 μg/ml)
N#C/C(=C\c1ccc[nH]1)c1cc(C(F)(F)F)cc(C(F)(F)F)c1 [Compound 68] |  |  | 27 | — (the symbol ‘—’ indicates tested but inactive up to 15 μg/ml)
N#C/C(=C\c1ccc[nH]1)c1ccc(F)cc1F [Compound 69] |  |  | 5 | 2.5 µg/mL
N#C/C(=C\c1ccc[nH]1)c1c(F)cccc1F [Compound 70] |  |  | 17 | 7.5 µg/mL
N#C/C(=C\c1ccc[nH]1)c1cccc(Oc2ccccc2)c1 [Compound 71] |  |  | 10 | 3.25 µg/mL
Cc1cccc(/C(C#N)=C/c2ccc[nH]2)c1 [Compound 72] |  |  | 42 | 1.25 µg/mL
N#C/C(=C\c1ccc[nH]1)c1ccc(F)c(Br)c1 [Compound 73] |  |  | 7 | 0.469 µg/mL
N#C/C(=C\c1ccc[nH]1)c1ccc(F)cc1Cl [Compound 74] |  |  | 30 | 3 µg/mL
CCc1ccc(/C(C#N)=C/c2ccc[nH]2)cc1 [Compound 75] |  |  | 58 | 0.875 µg/mL
CCC(=O)n1cccc1/C=C(\C#N)c1ccc(Cl)cc1 [Compound 76, (Z)-2-(4-Chlorophenyl)-3-(1-propanoyl-1H-pyrrol-2-yl)acrylonitrile] | 12 | 0.375 |  | 
N#C/C(=C\c1cccn1Cc1ccccc1)c1ccc(Cl)cc1 [Compound 77] |  |  | 3 | 14 µg/mL
CCN(CC)C(=O)n1cccc1/C=C(\C#N)c1ccc(Cl)cc1 [Compound 78] |  |  | 8 | 3.5 µg/mL
CC(C)(C)OC(=O)n1cccc1/C=C(\C#N)c1ccc(Cl)cc1 [Compound 79] |  |  | 9 | 3.75 µg/mL
N#C/C(=C\c1ccc[nH]1)c1ccc(F)c(Cl)c1 [Compound 81] |  |  | 5 | 1.25 µg/mL
N#C/C(=C\c1cccn1C(=O)c1ccccc1)c1ccc(Cl)cc1 [Compound 82] |  |  | 6 | 1.25 µg/mL
CN(C)C(=S)n1cccc1/C=C(\C#N)c1ccc(Cl)cc1 [Compound 84] |  |  | 19 | 10 µg/mL
COC(=O)n1cccc1/C=C(\C#N)c1ccc(Cl)cc1 [Compound 85] |  |  | 16 | 1.25 µg/mL
N#C/C(=C\c1cccn1C(=O)OCc1ccccc1)c1ccc(Cl)cc1 [Compound 86] |  |  | 20 | 5.5 µg/mL
CC(C)c1ccc(/C(C#N)=C/c2ccc[nH]2)cc1 [Compound 87] |  |  | 100 | — (the symbol ‘—’ indicates tested but inactive up to 15 μg/ml)
Cc1ccc(/C(C#N)=C/c2ccc[nH]2)c(C)c1 [Compound 88] |  |  | 44 | — (the symbol ‘—’ indicates tested but inactive up to 15 μg/ml)
